Where two headings read alike, the source gives them in different places.
What was measured:
[1] = molecular target: T1, PAF (Canis lupus familiaris, UniProt A0A8I3NSH0); assay: PAF Radioreceptor Binding Assay; conditions: dog platelets, 3H-PAF
T1 construct: followed by 2×10^7 dog platelets; from tissue; host or cells: washed platelets from citrate-treated dog blood
T1 sequence (A0A8I3NSH0 1-343): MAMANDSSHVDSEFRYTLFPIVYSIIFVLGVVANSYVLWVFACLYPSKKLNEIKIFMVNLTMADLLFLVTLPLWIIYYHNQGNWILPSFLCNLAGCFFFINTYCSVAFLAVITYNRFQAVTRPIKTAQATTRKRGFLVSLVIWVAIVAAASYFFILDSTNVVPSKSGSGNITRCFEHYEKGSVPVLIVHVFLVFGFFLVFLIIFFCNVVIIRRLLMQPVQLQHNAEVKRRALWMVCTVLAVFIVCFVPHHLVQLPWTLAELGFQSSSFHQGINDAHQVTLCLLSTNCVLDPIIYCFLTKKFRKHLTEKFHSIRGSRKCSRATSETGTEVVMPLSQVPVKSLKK
Description: Platelet rich plasma is prepared by centrifugation of citrate-treated dog blood. Acidification to pH 6.5 with 0.15 M citric acid and centrifugation for 10 minutes at 1000 xg yields a platelet pellet which is then washed by resuspension in EDTA-Phosphate Buffered Saline (PBS) and recentrifuged. The washed platelet preparation is adjusted to 2×10^7 platelets/50 μl in 0.1% BSA-PBS. […] After mixing, incubating for 10 minutes at room temperature, and centrifuging for 1 minute in a Beckman Microfuge B (8000 xg), the pellet is removed by clipping off the tip of the tube, the platelets are solubilized with 200 μl of 50% methanol, and counted in 10 ml of Aquasol. […] Results obtained with representative compounds of the present invention in this assay are summarized hereinafter in Tables I, II and III.

[2] = molecular target: T2, TXA2 synthase (Homo sapiens, UniProt P24557); assay: Thromboxane Synthase Inhibition, In Vitro; assay type: biochemical; conditions: at 1 μM (value in parentheses), human platelet microsomes
T2 construct: microsomal fractions from human platelets as enzyme source; from tissue; host or cells: microsomal fraction of human platelets
T2 sequence (P24557 1-533): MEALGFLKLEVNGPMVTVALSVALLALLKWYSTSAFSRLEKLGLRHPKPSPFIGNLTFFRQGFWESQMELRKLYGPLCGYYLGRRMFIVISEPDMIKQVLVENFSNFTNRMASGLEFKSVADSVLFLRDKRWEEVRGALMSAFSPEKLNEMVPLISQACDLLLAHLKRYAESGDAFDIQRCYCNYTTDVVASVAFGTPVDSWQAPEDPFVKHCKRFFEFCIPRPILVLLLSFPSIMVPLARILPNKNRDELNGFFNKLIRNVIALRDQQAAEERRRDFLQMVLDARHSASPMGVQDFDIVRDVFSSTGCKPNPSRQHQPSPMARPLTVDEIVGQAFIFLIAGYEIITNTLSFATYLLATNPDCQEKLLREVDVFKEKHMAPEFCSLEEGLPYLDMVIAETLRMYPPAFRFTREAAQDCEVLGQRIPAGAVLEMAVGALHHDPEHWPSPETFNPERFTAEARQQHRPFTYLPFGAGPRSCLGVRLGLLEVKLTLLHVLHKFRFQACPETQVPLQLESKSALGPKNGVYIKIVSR
Description: TXA2 synthase activity is measured by following the conversion of ^14 C-prostaglandin endoperoxide (PGH2) to ^14 C-thromboxane A2 (TXA2) using microsomal fractions from human platelets as enzyme source. In the aqueous incubation medium, the TXA2 decomposes rapidly into TXB2. The amount of TXA2 synthase is adjusted so that under the conditions of the assay approximately 80-90% of the substrate, PGH2, is converted to product in control tubes. To prepare ^14 C-PGH2, ^14 C-AA (50-60 mCi/mmole; Rose Chem.) is incubated with sheep seminal vesicular gland microsomes for 1.5 minutes at 37° C. and then the ^14 C-PGH2 is extracted with diethylether, purified on columns of Sephadex LH-20 or silicic acid, and stored in acetone at -70° C. Incubations are done as follows. Sufficient ^14 C-PGH2 yield a final substrate concentration of 10 μM (~30,000 cpm) is added to the incubation tubes and then the acetone is removed under nitrogen. […] The tubes are incubated at 22° C. for 2 minutes, the reaction is stopped and then the radioactive products and the unconverted PGH2 are extracted and analyzed by thin layer chromatography. […] The amount of ^14 C-PGH2 converted to products was used as a measure of TXA2 synthase activity. Inhibitors were tested initially at a final concentration of 100 μM. Results obtained with representative compounds of the present invention in this assay are summarized hereafter in Table I, II and III.

[3] = system: LTD4; assay: Leukotriene D4 (LTD4) Induced Arrhythmia Test; assay type: in vivo, guinea pig (Hartley); conditions: 10 mg/kg i.v. 5 min. before LTD4; conscious guinea pigs
Description: Male Hartley guinea pigs are anesthetized with sodium pentobarbital and prepared for monitoring direct blood pressure and injecting drugs intravenously by catheterizing the right carotid artery and right jugular vein. Blood pressure, heart rate, and Lead II ECG are monitored in the conscious animal 24 hours later.
Intravenous administration of LTD4 (2.5 pg/kg) is associated with an increase in blood pressure lasting approximately 1-2 minutes followed by a decrease lasting approximately 5-15 minutes (FIG. 3). Abnormal beats consisting of premature ventricular contractions, ST elevation or depression, atrioventricular conduction block, or dissociated p waves begin during the rise in blood pressure; the peak effect occurs approximately 40 seconds after LTD4. The percent of abnormal beats was quantitated by determining the number present during the first 2 minutes after injection and calculating the percent increase above the control level. During the hypotensive response, the animal usually collapses during the 2nd or 3rd minute after LTD4.

[4] = Table II, read-out: TXA2 Synth. Inhib. % at (1μM)
[5] = Table I, read-out: TXA2 Syn. Inhib. (1μM)
[6] = Table III, read-out: TXA2 Synth. Inhib. % at (1 μM)

In the case of `CCCc1c(OCCCCCC(=O)NCCCCn2ccnc2)ccc(C(C)=O)c1O`, the IC50 ([1]; Table II) is reported as 1000 nM and the inhibition at 1 µM [2, 4] is reported as 87%.

In the case of `CCCc1c(OCCCC(=O)NCCCCCCc2cccnc2)ccc(C(C)=O)c1O` [Example 11, 4-(4-Acetyl-3-hydroxy-2-propylphenoxy)-N-[6-(3-pyridinyl)hexyl]butanamide], the IC50 ([1]; Table I) is reported as 1000 nM and the inhibition at 1 µM [2, 5] is reported as 83%.

Compound `CCCc1c(OCCCCCC(=O)NCCc2cccnc2)ccc(C(C)=O)c1O` [Example 10, 6-(4-Acetyl-3-hydroxy-2-propylphenoxy)-N-[2-(3-pyridinyl)ethyl]hexanamide] has an IC50 ([1]; Table I) of 500 nM and an inhibition at 1 µM [2, 5] of 35%.

For `CCCc1c(OCCCCCCC(=O)NCCCCc2cccnc2)ccc(C(C)=O)c1O` [Example 3, 7-(4-Acetyl-3-hydroxy-2-propylphenoxy)-N-[4-(3-pyridinyl)butyl]heptanamide], the IC50 ([1]; Table I) was 1000 nM and the inhibition at 1 µM [2, 5] was 93%.

For `CCCc1c(OCCCC(=O)NCCCc2cccnc2)ccc(C(C)=O)c1O` [Example 12, 4-(4-Acetyl-3-hydroxy-2-propylphenoxy)-N-[3-(3-pyridinyl)propyl]butanamide], the IC50 ([1]; Table I) was 1500 nM and the inhibition at 1 µM [2, 5] was 51%.

For `CCCc1c(OCC#CCCCC(=O)NCCCCc2cccnc2)ccc(C(C)=O)c1O` [drawing 42], the “Arrhy's (R/T)” value [3] was 1/3, the “decrease in blood pressure (.dwnarw.XABP)” value (“decrease in blood pressure” below) [3] was -44.5 Δmm Hg and the “increase in blood pressure (.uparw.XABP)” value [3] was 18 ± 4 Δmm Hg.

Work on `CCCc1c(OCCCCCC(=O)NCCc2ccncc2)ccc(C(C)=O)c1O` yielded an IC50 ([1]; Table II) of 1750 nM and an inhibition at 1 µM [2, 4] of 0%.

Work on `CCCc1c(OCCCCC(=O)NCCCCc2cccnc2)ccc(C(C)=O)c1O` [Example 1] yielded an IC50 ([1]; Table I) of 1000 nM.

`CCCc1c(OCC(C)CC(=O)NCCCCc2cccnc2)ccc(C(C)=O)c1O` (stereo not drawn) [Example 23, 4-(4-Acetyl-3-hydroxy-2-propylphenoxy)-3-methyl-N-[4-(3-pyridinyl)butyl]butanamide] gave an IC50 ([1]; Table III) of 200 nM and an inhibition at 1 µM [2, 6] of 77%.

`CCCc1c(OCCCC#CC(=O)NCCCCc2cccnc2)ccc(C(C)=O)c1O` [drawing 36] was tested, and the IC50 ([1]; Table II) was 500 nM and the inhibition at 1 µM [2, 4] was 88%.

`CCCc1c(OCCC(=O)NCCCCc2cccnc2)ccc(C(C)=O)c1O` [Example 6, 3-(4-Acetyl-3-hydroxy-2-propylphenoxy)-N-[4-(3-pyridinyl)butyl]propanamide] was tested, and the IC50 ([1]; Table I) was 1000 nM and the inhibition at 1 µM [2, 5] was 77%.

Compound `CCCc1c(OCCC(C)(C)C(=O)NCCCCc2cccnc2)ccc(C(C)=O)c1O` [Example 24, 4-(4-Acetyl-3-hydroxy-2-propylphenoxy)-2,2-dimethyl-N-[4-(3-pyridinyl)butyl]butanamide] has an IC50 ([1]; Table III) of 1000 nM and an inhibition at 1 µM [2, 6] of 55%.

With `CCCc1c(OCCCCCC(=O)NCCCCc2cccnc2)ccc(C(C)=O)c1O` [drawing 39] the “Arrhy's (R/T)” value [3] was 0/5, the “decrease in blood pressure” value [3] was -16 ± 6 Δmm Hg and the “increase in blood pressure (.uparw.XABP)” value [3] was 6 ± 3 Δmm Hg.

Work on `CCCc1c(OCCCCCC(=O)NCCCCc2ccccn2)ccc(C(C)=O)c1O` yielded an IC50 ([1]; Table II) of 1000 nM and an inhibition at 1 µM [2, 4] of 0%.

With `CCCc1c(OCCCCCC(=O)NCCCCCCc2cccnc2)ccc(C(C)=O)c1O` [Example 8, 6-(4-Acetyl-3-hydroxy-2-propylphenoxy)-N-[6-(3-pyridinyl)hexyl]hexanamide] the IC50 ([1]; Table I) was 1000 nM and the inhibition at 1 µM [2, 5] was 90%.

In the case of `CCCc1c(OCCCCCCCC(=O)NCCCCc2cccnc2)ccc(C(C)=O)c1O` [Example 2, 8-(4-Acetyl-3-hydroxy-2-propylphenoxy)-N-[4-(3-pyridinyl)butyl]octanamide], the IC50 ([1]; Table I) is reported as 1000 nM.

For `CCCc1c(OCCCC(=O)NCCc2cccnc2)ccc(C(C)=O)c1O` [Example 13, 4-(4-Acetyl-3-hydroxy-2-propylphenoxy)-N-[2-(3-pyridinyl)ethyl]butanamide], the IC50 ([1]; Table I) was 400 nM and the inhibition at 1 µM [2, 5] was 8%.

With `CCCc1c(OCC(=O)NCCCCc2cccnc2)ccc(C(C)=O)c1O` [Example 7, (4-Acetyl-3-hydroxy-2-propylphenoxy)-N-[4-(3-pyridinyl)butyl]acetamide] the IC50 ([1]; Table I) was 1500 nM and the inhibition at 1 µM [2, 5] was 81%.

With `CCCc1c(OCCCC(=O)NCCCCc2cccnc2)ccc(C(C)=O)c1O` [drawing 40] the “Arrhy's (R/T)” value [3] was 0/3, the “decrease in blood pressure” value [3] was -26 ± 8 Δmm Hg and the “increase in blood pressure (.uparw.XABP)” value [3] was 6 ± 6 Δmm Hg.

For `CCCc1c(OCCCCCC(=O)NCCCc2cccnc2)ccc(C(C)=O)c1O` [Example 9, 6-(4-Acetyl-3-hydroxy-2-propylphenoxy)-N-[3-(3-pyridinyl)propyl]hexanamide], the IC50 ([1]; Table I) was 2000 nM and the inhibition at 1 µM [2, 5] was 78%.

For `CCCc1c(OCC(C)CC(=O)NC(C)CCCc2cccnc2)ccc(C(C)=O)c1O` (stereo not drawn) [Example 26, 4-(4-Acetyl-3-hydroxy-2-propylphenoxy)-3-methyl-N-[1-methyl-4-(3-pyridinyl)butyl]-butanamide], the IC50 ([1]; Table III) was 1000 nM and the inhibition at 1 µM [2, 6] was 78%.

For `CCCc1c(OCCCCCC(=O)NCCCCOc2cccnc2)ccc(C(C)=O)c1O`, the IC50 ([1]; Table II) was 1000 nM and the inhibition at 1 µM [2, 4] was 93%.

In the case of `CCCc1c(OCCCNC(=O)NCCCCc2cccnc2)ccc(C(C)=O)c1O` [Example 30, N-[3-(4-acetyl-3-hydroxy-2-propylphenoxy)-propyl]-N'-[4-(3-pyridinyl)butyl]urea], the IC50 ([1]; Table III) is reported as 700 nM and the inhibition at 1 µM [2, 6] is reported as 93%.

`CCCc1c(OCCC(C)C(=O)NCCCCc2cccnc2)ccc(C(C)=O)c1O` (stereo not drawn) [Example 22, 4-(4-Acetyl-3-hydroxy-2-propylphenoxy)-2-methyl-N-[4-(3-pyridinyl)butyl]butanamide] gave an IC50 ([1]; Table III) of 1000 nM and an inhibition at 1 µM [2, 6] of 70%.

With `CCCc1c(OCCCCCC(=O)NCCCCc2cncnc2)ccc(C(C)=O)c1O` [drawing 41] the “Arrhy's (R/T)” value [3] was 1/3, the “decrease in blood pressure” value [3] was -44 ± 5 Δmm Hg and the “increase in blood pressure (.uparw.XABP)” value [3] was 32 ± 2 Δmm Hg.

`CCCc1c(OCCCC(=O)NC(C)CCCc2cccnc2)ccc(C(C)=O)c1O` (stereo not drawn) [Example 27, 4-(4-Acetyl-3-hydroxy-2-propylphenoxy)-N-[1-methyl-4-(3-pyridinyl)butyl]butanamide] showed an IC50 ([1]; Table III) of 300 nM and an inhibition at 1 µM [2, 6] of 77%.

Source: patent publication US4672066A, “Derivatives of 4-acetyl-3-hydroxy-2-alkyl-phenoxycarboxylic acids” (Hoffmann-La Roche Inc., priority 1985, dated 1987)
